Laboratory results published in the CheMixHub viscosity set.
± gives the uncertainty stated by the source.

Assay: xn = mol fraction of the nth substance listed

SMILES: CCCCCCCC(=O)O + CC(C)[C@@H]1CC[C@@H](C)C[C@H]1O
- viscosity (293.15 K, 100 kPa, x1 = 0.4): 19.83 ± 0.18 mPa·s
- viscosity (298 K, 101 kPa, x2 = 0.333): 12 ± 0.5 mPa·s
- viscosity (298.15 K, 100 kPa, x1 = 0.4): 15.29 ± 0.14 mPa·s
- viscosity (303.15 K, 100 kPa, x1 = 0.4): 12.01 ± 0.11 mPa·s
- viscosity (308.15 K, 100 kPa, x1 = 0.4): 9.58 ± 0.09 mPa·s
- viscosity (313.15 K, 100 kPa, x1 = 0.4): 7.8 ± 0.07 mPa·s
- viscosity (318.15 K, 100 kPa, x1 = 0.4): 6.43 ± 0.06 mPa·s
- viscosity (323.15 K, 100 kPa, x1 = 0.4): 5.37 ± 0.05 mPa·s

SMILES: CC(C)C(C)O (stereo not given) + COc1ccccc1
- viscosity (303.15 K, 101.33 kPa, x2 = 0.1006): 2.405 ± 0.029 mPa·s
- viscosity (303.15 K, 101.33 kPa, x2 = 0.2007): 1.858 ± 0.022 mPa·s
- viscosity (303.15 K, 101.33 kPa, x2 = 0.3004): 1.476 ± 0.018 mPa·s
- viscosity (303.15 K, 101.33 kPa, x2 = 0.4): 1.223 ± 0.015 mPa·s
- viscosity (303.15 K, 101.33 kPa, x2 = 0.5008): 1.067 ± 0.013 mPa·s
- viscosity (303.15 K, 101.33 kPa, x2 = 0.6009): 0.981 ± 0.012 mPa·s
- viscosity (303.15 K, 101.33 kPa, x2 = 0.6997): 0.937 ± 0.011 mPa·s
- viscosity (303.15 K, 101.33 kPa, x2 = 0.8003): 0.919 ± 0.011 mPa·s
- viscosity (303.15 K, 101.33 kPa, x2 = 0.8998): 0.913 ± 0.011 mPa·s
- viscosity (313.15 K, 101.33 kPa, x2 = 0.1006): 1.731 ± 0.021 mPa·s
- viscosity (313.15 K, 101.33 kPa, x2 = 0.2007): 1.397 ± 0.017 mPa·s
- viscosity (313.15 K, 101.33 kPa, x2 = 0.3004): 1.157 ± 0.014 mPa·s
- viscosity (313.15 K, 101.33 kPa, x2 = 0.4): 0.991 ± 0.012 mPa·s
- viscosity (313.15 K, 101.33 kPa, x2 = 0.5008): 0.889 ± 0.011 mPa·s
- viscosity (313.15 K, 101.33 kPa, x2 = 0.6009): 0.832 ± 0.01 mPa·s
- viscosity (313.15 K, 101.33 kPa, x2 = 0.6997): 0.808 ± 0.01 mPa·s
- viscosity (313.15 K, 101.33 kPa, x2 = 0.8003): 0.799 ± 0.01 mPa·s
- viscosity (313.15 K, 101.33 kPa, x2 = 0.8998): 0.794 ± 0.01 mPa·s
- viscosity (323.15 K, 101.33 kPa, x2 = 0.1006): 1.273 ± 0.015 mPa·s
- viscosity (323.15 K, 101.33 kPa, x2 = 0.2007): 1.066 ± 0.013 mPa·s
- viscosity (323.15 K, 101.33 kPa, x2 = 0.3004): 0.925 ± 0.011 mPa·s
- viscosity (323.15 K, 101.33 kPa, x2 = 0.4): 0.83 ± 0.01 mPa·s
- viscosity (323.15 K, 101.33 kPa, x2 = 0.5008): 0.771 ± 0.009 mPa·s
- viscosity (323.15 K, 101.33 kPa, x2 = 0.6009): 0.736 ± 0.009 mPa·s
- viscosity (323.15 K, 101.33 kPa, x2 = 0.6997): 0.718 ± 0.009 mPa·s
- viscosity (323.15 K, 101.33 kPa, x2 = 0.8003): 0.707 ± 0.009 mPa·s
- viscosity (323.15 K, 101.33 kPa, x2 = 0.8998): 0.699 ± 0.009 mPa·s
